# Measured values taken from patent US20260256755A1, “COMBINATIONS FOR TREATMENT OF PARKINSON'S DISEASE AND OTHER PRIMARY AND SECONDARY PARKINSONIAN DISORDERS” (Kenai Therapeutics, Inc., priority 2023, published 2026).
# What was measured:
# [1] = tested on: cerebral cortex; assay: Example 5: cortical lesion study, neuroprotection and inflammation; format: in vivo, long evans hooded rats; conditions: injected with DA neural cells
# From the text: Animals, Surgery, and histology: lesion studies will be conducted on 15 long evans hooded rats weighing 225-275 g. Twelve of these rats will be deeply anesthetized 10 with ketamine/xylazine and placed in a sterotaxic holder. A 4×2 mm (rostrocaudal×mediolateral) skull opening will be made on the right side starting just behind the coronal suture and centered at a mediolateral position of +2.5 mm relative to bregma. A dissecting knife will be penetrated through the dura and cortex in the center of this skull opening to a depth of 1 mm. The skull defect will be filled with bone wax, the skin sutured closed, and the animal placed on a heating pad. Twenty minutes later, 0.4 cc of solution containing 100 μg of 20 peptide (^~0.4 mg/kg, 6 rats) or DMEM vehicle (6 rats) will be injected under the skin of the shoulder near the midline. The rats will be perfused 4 days later and their brains processed for histology and immunohistochemistry as in previous studies. Three rats will be sacrificed without surgery or treatment. […] The density of ED-1+ ameboid microglia in the perilesion parencyma wound will be calculated after experimentally blinded counting of 4 fields (dorsal and ventral margins of the wound) in 2 sections through the lesion.
# [2] = tested on: microglia; conditions: cited from earlier work
# [3] = tested on: DA neural cells; assay: Example 2: stress test, medium change followed by serum deprivation; format: cell-based; conditions: concentrations of 0.1 and 0.01 μM
# From the text: DA neural cell survival will be measured by either counting surviving attached DA neural cells or by colorimetric determination after applying an electrocoupling reagent that responds to chemical reactions in normal cellular respiration.
# [4] = tested on: PGC-1a; assay: upregulation of PGC-1a, mode of action relevant to dopaminergic cells; format: cell-based; conditions: for ability to upregulate PGC-1a: target relevant to dopaminergic cells and Parkinson's disease
smiles,measurement,setting,value
FC(F)(F)c1ccc(CNc2ccc(Cc3c[nH]c4ncc(Cl)cc34)cn2)cn1 [Pexidartinib],accumulation of inflammatory cells in the parenchyma,[1],inhibited
same,disruption of the cerebral cortex,[1],inhibited
same,depletion of the microglia population,[2]; healthy brain,fast depletion of the microglia population
same,survival of microglia,[2]; in vivo,inhibit the survival of microglia
same,rescue of DA neural cells,[3],rescue DA neural cells
CC(C)(Oc1ccc(CCNC(=O)c2ccc(Cl)cc2)cc1)C(=O)O [benzafibrate],ability to upregulate PGC-1a,[4],unable to upregulate PGC-1a
CCOC(=O)C(C)(C)Oc1ccc(Cl)cc1 [clorofibrate],ability to upregulate PGC-1a,[4],unable to upregulate PGC-1a
CC(C)OC(=O)C(C)(C)Oc1ccc(C(=O)c2ccc(Cl)cc2)cc1 [fenofibrate],activity (active or not),[4]; mode of action relevant to dopaminergic cells and Parkinson's disease,active
